Measured values reported in patent US20210395256A1, “TYROSINE KINASE INHIBITORS, COMPOSITIONS AND METHODS THERE OF” (Betta Pharmaceuticals Co., Ltd., priority 2018, published 2021).

Assays:
CYP1A2 = target: T1, CYP1A2 (Homo sapiens, UniProt P05177); test: Cytochrome P450 inhibition, CYP1A2; assay type: in vitro ADME; conditions: probe Phenacetin (40 μM); 10 μM compound, human liver microsomes, substrate Phenacetin; read-out: Inhibition percentage CYP1A2 (Phenacetin)
T1 construct: from tissue; host or cells: human liver microsomes
T1 sequence (P05177 1-516): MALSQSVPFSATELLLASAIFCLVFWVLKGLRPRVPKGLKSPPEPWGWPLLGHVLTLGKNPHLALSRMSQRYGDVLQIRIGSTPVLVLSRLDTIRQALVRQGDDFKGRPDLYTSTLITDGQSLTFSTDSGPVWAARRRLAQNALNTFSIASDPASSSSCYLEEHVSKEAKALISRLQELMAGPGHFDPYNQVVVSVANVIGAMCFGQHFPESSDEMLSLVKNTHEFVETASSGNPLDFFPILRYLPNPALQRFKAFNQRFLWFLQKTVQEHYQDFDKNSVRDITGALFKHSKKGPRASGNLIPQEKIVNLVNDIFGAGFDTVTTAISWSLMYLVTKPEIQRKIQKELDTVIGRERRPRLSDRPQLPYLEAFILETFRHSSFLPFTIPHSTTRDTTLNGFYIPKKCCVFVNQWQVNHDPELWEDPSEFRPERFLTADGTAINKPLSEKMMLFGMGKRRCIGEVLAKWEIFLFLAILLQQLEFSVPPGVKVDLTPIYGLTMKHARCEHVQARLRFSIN
Protocol: Example 205 Cytochrome P450 Measurements The cytochrome P450 was measured as the following procedure: 1) A master solution containing phosphate buffer, ultra-pure H2O, MgCl2 solution and human liver microsomes was made according to Table 17, and then 1 μL of 2 mM of compound solution or 1 μL of DMSO (as without inhibitor control) was added to the above master solution. The final concentration of test compounds or control compounds was 10 μM. [table] 2) For CYP1A2 inhibition, 1 μL of specific drug substrate (Phenacetin: 8 mM) was added at the final concentration of 40 μM to the above solution. 8) The mixture was pre-warmed at 37° C. for 5 min. The reaction was started by the addition of 20 μL of 10 mM NADPH solution at the final concentration of 1 mM and carried out at 37° C. 9) The reaction was stopped by addition of 300 μL of cold quench solution (methanol containing internal standards (1S, 500 nM Labetalol, 100 nM Alprazolam and 2 μM Ketoprofen) at the designated time points (Phenacetin: 20 min; Paclitaxel: 10 min; Tolbutamide: 20 min; (s)-Mephenytoin: 20 min; Midazolam: 5 min; Testosterone: 10 min). Samples were vortexed for 5 minutes and centrifuged at 3220 g for 40 minutes at 4° C. And then 100 μL of the supernatant was transferred to a new 96-well plate with 100 μL or 200 μL water (depends on the LC-MS signal response and peak shape) for LC-MS/MS analysis. All experiments were performed in duplicates.

CYP2C19 = target: T2, CYP2C19 (Homo sapiens, UniProt P33261); test: Cytochrome P450 inhibition, CYP2C19; assay type: in vitro ADME; conditions: probe (s)-Mephenytoin (50 μM); 10 μM compound, human liver microsomes, substrate (s)-Mephenytoin; read-out: Inhibition percentage CYP2C19 ((s)-Mephenytoin)
T2 construct: from tissue; host or cells: human liver microsomes
Protocol: Example 205 Cytochrome P450 Measurements
The cytochrome P450 was measured as the following procedure:
1) A master solution containing phosphate buffer, ultra-pure H2O, MgCl2 solution and human liver microsomes was made according to Table 17, and then 1 μL of 2 mM of compound solution or 1 μL of DMSO (as without inhibitor control) was added to the above master solution. The final concentration of test compounds or control compounds was 10 μM.
5) For CYP2C19 inhibition, 1 μL of specific drug substrate ((s)-Mephenytoin: 10 mM) was added at the final concentration of 50 μM to the above solution.
8) The mixture was pre-warmed at 37° C. for 5 min. The reaction was started by the addition of 20 μL of 10 mM NADPH solution at the final concentration of 1 mM and carried out at 37° C.
9) The reaction was stopped by addition of 300 μL of cold quench solution (methanol containing internal standards (1S, 500 nM Labetalol, 100 nM Alprazolam and 2 μM Ketoprofen) at the designated time points (Phenacetin: 20 min; Paclitaxel: 10 min; Tolbutamide: 20 min; (s)-Mephenytoin: 20 min; Midazolam: 5 min; Testosterone: 10 min). Samples were vortexed for 5 minutes and centrifuged at 3220 g for 40 minutes at 4° C. And then 100 μL of the supernatant was transferred to a new 96-well plate with 100 μL or 200 μL water (depends on the LC-MS signal response and peak shape) for LC-MS/MS analysis.
All experiments were performed in duplicates.
Inhibition percentages for compounds against CYP1A2, CYP2C8, CYP2C9, CYP2C19, and […]

T2 sequence (P33261 whole entry): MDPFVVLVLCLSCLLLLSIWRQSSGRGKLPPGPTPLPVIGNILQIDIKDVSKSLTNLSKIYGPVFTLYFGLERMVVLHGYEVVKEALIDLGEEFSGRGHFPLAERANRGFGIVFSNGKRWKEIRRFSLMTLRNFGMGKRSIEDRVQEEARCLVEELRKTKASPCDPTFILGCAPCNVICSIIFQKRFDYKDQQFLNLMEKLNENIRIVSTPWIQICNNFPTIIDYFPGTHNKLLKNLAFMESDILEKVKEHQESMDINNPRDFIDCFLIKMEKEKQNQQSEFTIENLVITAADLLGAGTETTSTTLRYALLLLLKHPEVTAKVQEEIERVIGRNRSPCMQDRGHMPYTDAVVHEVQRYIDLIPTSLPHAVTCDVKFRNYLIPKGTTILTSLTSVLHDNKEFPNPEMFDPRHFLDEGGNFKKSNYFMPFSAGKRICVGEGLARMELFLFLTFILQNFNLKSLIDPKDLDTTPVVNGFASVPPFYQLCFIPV

inhibition at 20 min, 10 µM (CYP1A2)	inhibition at 20 min, 10 µM (CYP2C19)	Compound
29%	13%	Cc1nnc(-c2cnn3ccc(N4CCCC4c4cc(F)ccc4F)nc23)[nH]1 (centres unmarked) [Comparative compound A, 5-[2-(2,5-Difluorophenyl)pyrrolidin-1-yl]-3-(5-methyl-1H-1,2,4-triazol-3-yl)pyrazolo[1,5-a]pyrimidine, reference compound]
1.53%	7.23%	C[C@H](O)c1nnc(-c2cnn3ccc(N4CCC[C@@H]4c4cc(F)ccc4F)nc23)[nH]1 [Compound 4, (S)-1-(5-(5-((R)-2-(2,5-difluorophenyl)pyrrolidin-1-yl)pyrazolo[1,5-a]pyrimidin-3-yl)-4H-1,2,4-triazol-3-yl)ethan-1-ol]
4.38%	20.3%	OC(c1nnc(-c2cnn3ccc(N4CCC[C@@H]4c4cc(F)ccc4F)nc23)[nH]1)C(F)(F)F (stereo partly drawn) [Compound 47, 1-(5-(5-((R)-2-(2,5-difluorophenyl)pyrrolidin-1-yl)pyrazolo[1,5-a]pyrimidin-3-yl)-4H-1,2,4-triazol-3-yl)-2,2,2-trifluoroethan-1-ol]
8.54%	6.79%	CC(C)(O)c1nnc(-c2cnn3ccc(N4CCC[C@@H]4c4cc(F)ccc4F)nc23)[nH]1 [Compound 7, (R)-2-(5-(5-(2-(2,5-difluorophenyl)pyrrolidin-1-yl)pyrazolo[1,5-a]pyrimidin-3-yl)-4H-1,2,4-triazol-3-yl)propan-2-ol]
